Key:
[1] = target: T1, human progesterone receptor B (hPRB) (Homo sapiens, UniProt P06401); test: Progestational activity (transactivation in CHO cells transfected with hPRB, MMTV-luciferase, compared with (16α)-16-ethyl-21-hydroxy-19-norpregn-4-ene-3,20-dione); assay type: cell-based; parameters: key: (−) very weak activity found; (+) activity found; (++) high activity; (+++) excellent activity; details: rated by scheme
T1 construct: expressed in transfected cells; host or cells: CHO (Chinese hamster ovary) cells
T1 sequence (P06401 1-933): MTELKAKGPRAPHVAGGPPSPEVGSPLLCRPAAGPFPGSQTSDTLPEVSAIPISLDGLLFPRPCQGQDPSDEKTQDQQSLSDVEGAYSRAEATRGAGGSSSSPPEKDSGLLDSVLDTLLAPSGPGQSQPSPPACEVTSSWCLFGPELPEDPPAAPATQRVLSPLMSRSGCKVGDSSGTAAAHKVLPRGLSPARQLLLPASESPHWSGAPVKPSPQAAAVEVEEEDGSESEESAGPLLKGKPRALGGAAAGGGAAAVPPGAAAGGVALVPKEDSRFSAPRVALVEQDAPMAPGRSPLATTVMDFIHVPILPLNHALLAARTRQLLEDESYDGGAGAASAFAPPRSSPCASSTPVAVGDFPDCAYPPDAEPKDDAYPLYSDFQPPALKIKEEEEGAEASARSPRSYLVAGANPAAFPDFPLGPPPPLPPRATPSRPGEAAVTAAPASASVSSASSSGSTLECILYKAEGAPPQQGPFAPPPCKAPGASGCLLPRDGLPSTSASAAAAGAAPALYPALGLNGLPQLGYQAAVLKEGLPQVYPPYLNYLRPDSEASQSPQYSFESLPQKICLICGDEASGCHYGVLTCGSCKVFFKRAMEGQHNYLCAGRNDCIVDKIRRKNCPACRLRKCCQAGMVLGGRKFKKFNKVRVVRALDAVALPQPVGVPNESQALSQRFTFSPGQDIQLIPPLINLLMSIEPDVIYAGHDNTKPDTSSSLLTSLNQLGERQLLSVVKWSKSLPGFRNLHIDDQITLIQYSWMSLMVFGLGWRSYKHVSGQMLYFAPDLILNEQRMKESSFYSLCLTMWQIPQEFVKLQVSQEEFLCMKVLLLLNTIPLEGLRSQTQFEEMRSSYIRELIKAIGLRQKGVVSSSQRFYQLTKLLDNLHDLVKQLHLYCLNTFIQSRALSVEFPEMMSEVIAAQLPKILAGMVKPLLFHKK
Method: The transactivative progestagenic activity of the compounds of the invention can be measured, e.g. in Chinese hamster ovary cells (CHO) transfected with the human progesterone receptor B (hPRB), in combination with a mouse mammary tumor virus (MMTV), and luciferase receptor gene (incubation time 16 h, temperature 37° C.) and compared with the activity of (16α)-16-ethyl-21-hydroxy-19-norpregn-4-ene-3,20-dione [according to the procedure described by Schoonen, W. G. E. J. et al, Analyt. Biochem. 261, 222-224 (1998)].
(§1) The compounds according to the invention were tested for androgenic activity and for progestational activity (the procedures for which have been described above) and rated according to the following scheme: […]

[2] = target: T2, human androgen receptor (hAR) (Homo sapiens, UniProt P10275); test: Androgenic activity (transactivation in CHO cells transfected with hAR, MMTV-luciferase, compared with 5α-dihydrotestosterone); assay type: cell-based; parameters: key: (−) very weak activity found; (+) activity found; (++) high activity; (+++) excellent activity; details: rated by scheme
T2 construct: expressed in transfected cells; host or cells: CHO (Chinese hamster ovary) cells
T2 sequence (P10275 1-920): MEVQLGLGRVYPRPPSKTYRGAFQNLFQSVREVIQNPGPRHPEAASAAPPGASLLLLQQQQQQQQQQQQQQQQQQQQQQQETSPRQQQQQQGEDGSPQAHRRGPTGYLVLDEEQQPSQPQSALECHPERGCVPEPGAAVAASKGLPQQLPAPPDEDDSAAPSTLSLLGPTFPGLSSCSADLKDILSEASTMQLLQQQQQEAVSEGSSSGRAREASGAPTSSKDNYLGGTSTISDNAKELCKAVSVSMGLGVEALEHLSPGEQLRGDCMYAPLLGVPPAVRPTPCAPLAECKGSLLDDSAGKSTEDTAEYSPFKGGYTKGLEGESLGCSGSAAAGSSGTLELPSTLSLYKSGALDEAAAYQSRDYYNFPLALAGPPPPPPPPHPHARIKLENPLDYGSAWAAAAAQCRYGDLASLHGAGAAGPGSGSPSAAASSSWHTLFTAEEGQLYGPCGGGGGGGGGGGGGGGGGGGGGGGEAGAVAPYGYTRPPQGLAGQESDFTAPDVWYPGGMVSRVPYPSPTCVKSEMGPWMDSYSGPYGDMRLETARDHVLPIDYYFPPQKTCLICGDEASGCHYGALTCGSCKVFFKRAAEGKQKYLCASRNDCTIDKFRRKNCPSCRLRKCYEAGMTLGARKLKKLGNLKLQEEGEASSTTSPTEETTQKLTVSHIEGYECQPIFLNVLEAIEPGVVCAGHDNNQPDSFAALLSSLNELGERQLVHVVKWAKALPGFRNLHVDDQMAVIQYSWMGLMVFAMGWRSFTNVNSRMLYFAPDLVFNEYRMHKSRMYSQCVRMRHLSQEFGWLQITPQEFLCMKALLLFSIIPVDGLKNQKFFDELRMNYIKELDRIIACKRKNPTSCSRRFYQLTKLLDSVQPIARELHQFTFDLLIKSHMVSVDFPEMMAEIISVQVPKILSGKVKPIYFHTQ
From the text: Androgenic activity can be measured in various ways. Thus, the potency of androgens can be determined in vitro using the cytoplasmic androgen receptor from human breast tumor cells (MCF-7 cell line); see Bergink, E. W. et al, Comparison of the receptor binding properties of nandrolone and testosterone under in vitro and in vivo conditions, J. Steroid Biochem. 22, 831-836 (1985). […] The transactivative androgen activity of the compounds of the invention can be measured, e.g. in Chinese hamster ovary cells (CHO) transfected with the human androgen receptor (hAR), in combination with a mouse mammary tumor virus (MMTV), and luciferase receptor gene (incubation time 16 h, temperature 37° C.) and compared with the activity of 5α-dihydrotestosterone [according to the procedure described by Schoonen, W. G. E. J. et al, Analyt. Biochem. 261, 222-224 (1998)]. For the in vivo potency determination of androgens the classical Hershberger test can be used. In this test the androgenic (increase in prostate weight) and anabolic activities [increase of the musculus levator ani (MLA)] of a compound are tested in immature castrated rats after daily administration for 7 days; see Hershberger, L. G. et al, Myotrophic activity of 19-Nortestosterone and other steroids determined by modified levator ani muscle method, Proceedings of the society for experimental biology and medicine 83, 175-180 (1953). Additionally, the effect of an androgenic compound on LH suppression can be tested in mature castrated rats according to Kumar, N. et al, The biological activity of 7alpha-methyl-19-nortestosteione is not amplified in male reproductive tract as is that of testosterone, Endocrinology 130, 3677-3683 (1992).
as §1

| SMILES | Progestational activity [1] | Androgenic activity [2] | melting point |
| --- | --- | --- | --- |
| CC1=C2[C@H]3[C@H](CC[C@]2(C)[C@@H](O)C1)[C@H]1CCC(=O)C=C1C[C@H]3C [Example 1, (7α,17β)-17-Hydroxy-7,15-dimethylestra-4,14-dien-3-one] | ++ | ++ | 164 to 167 °C |
| CCC1=C2[C@H]3[C@H](CC[C@]2(C)[C@@H](O)C1)[C@H]1CCC(=O)C=C1C[C@H]3C [Example 2, (7α,17β)-15-Ethyl-17-hydroxy-7-methylestra-4,14-dien-3-one] | ++ | + |  |
| CC[C@@H]1CC2=CC(=O)CC[C@@H]2[C@H]2CC[C@@]3(C)C(=C(C)C[C@@H]3O)[C@H]12 [Example 3, (7α,17β)-7-Ethyl-17-hydroxy-15-methylestra-4,14-dien-3-one] | + | ++ |  |
| CCC1=C2[C@@H]3[C@H](CC)CC4=CC(=O)CC[C@@H]4[C@H]3CC[C@]2(C)[C@@H](O)C1 [Example 4, (7α,17β)-7,15-Diethyl-17-hydroxyestra-4,14-dien-3-one] | + | + |  |
| CC[C@]12CC[C@H]3[C@H](C1=C(C)C[C@@H]2O)[C@H](C)CC1=CC(=O)CC[C@@H]13 [Example 5, (7α,17β)-13-Ethyl-17-hydroxy-7,15-dimethylgona-4,14-dien-3-one] | + | ++ |  |
| C[C@@H]1C=C2[C@@H]3CCC4=CC(=O)CC[C@@H]4[C@H]3CC[C@]2(C)[C@H]1O [Example 6a, (16α,17β)-17-Hydroxy-16-methylestra-4,14-dien-3-one] | + | + |  |
| C[C@H]1C=C2[C@@H]3CCC4=CC(=O)CC[C@@H]4[C@H]3CC[C@]2(C)[C@H]1O [Example 6b, (16β,17β)-17-hydroxy-16-methylestra-4,14-dien-3-one] | + | ++ |  |
| C[C@@H]1C=C2[C@H]3[C@H](CC[C@]2(C)[C@H]1O)[C@H]1CCC(=O)C=C1C[C@H]3C [Example 7a, (7α,16α,17β)-17-Hydroxy-7,16-dimethylestra-4,14-dien-3-one] | + | ++ |  |
| CC[C@@H]1CC2=CC(=O)CC[C@@H]2[C@H]2CC[C@@]3(C)C(=C[C@@H](C)[C@@H]3O)[C@H]12 [Example 7b, (7α,16α,17β)-17-Hydroxy-7-ethyl-16-metliylestra-4,14-dien-3-one] | + | ++ |  |
| C=C[C@@H]1CC2=CC(=O)CC[C@@H]2[C@H]2CC[C@@]3(C)C(=C[C@@H](C)[C@@H]3O)[C@@H]21 [Example 7c, (7α,16α,17β)-17-Hydroxy-16-methyl-7-vinylestra-4,14-dien-3-one] | + | ++ |  |
| CC[C@@H]1CC2=C(CCC(=O)C2)[C@H]2CC[C@@]3(C)C(=C(C)C[C@@H]3O)[C@H]12 [Example 8a, (7α,17β)-7-Ethyl-17-hydroxy-15-methylestra-5(10),14-dien-3-one] | Prodrug | Prodrug |  |
| CC[C@@H]1CC2=C(CC[C@@H](O)C2)[C@H]2CC[C@@]3(C)C(=C(C)C[C@@H]3O)[C@H]12 [Example 8b, (3α,7α,17β)-7-ethyl-15-methylestra-5(10),14-diene-3,17-diol] | Prodrug | Prodrug |  |
| CC[C@@H]1CC2=C(CC[C@H](O)C2)[C@H]2CC[C@@]3(C)C(=C(C)C[C@@H]3O)[C@H]12 [Example 8c, (3β,7α,17β)-7-ethyl-15-methylestra-5 (10),14-diene-3,17-diol] | Prodrug | Prodrug |  |
| C[C@@H]1CC2=CC(=O)CC[C@@H]2[C@H]2CC[C@@]3(C)C(=CC[C@@H]3O)[C@@H]21 [Reference compound (Segaloff comp.*), (7α,17β)-7-methyl-17-hydroxyestra-4,14-dien-3-one, reference compound] | − | +++ |  |

Reference: patent publication US20040059140A1, “14(15)-unsaturated 15- and/or 16-substituted androgens with mixed androgen-progrestational profile” (priority 2000, published 2004)
